Columns and labels:
[1] = test system: Sprague Dawley rats; test: Example 9 benzoylecgonine intranasal toxicity, Single-Dose Phase; type: in vivo, rat
Experimental: Benzoylecgonine in the vehicle (deionized water) was administered by intranasal instillation once to a group (Group 2) of Sprague Dawley rats at a dose level of 8.8 mg/kg. […] The dose volume was 0.22 mL/kg, divided between the 2 nares, for both groups. Groups 1 and 2 each consisted of 20 animals/sex. Following dose administration, 9 to 10 animals/sex/group were euthanized on Study Day 1; the remaining 10 animals/sex/group were euthanized following a 14-day nondosing (recovery) period. Criteria for evaluation included daily mortality observations, daily clinical observations, detailed physical observations, body weights, food consumption, clinical pathology (hematology, coagulation, serum chemistry, and urinalysis), organ weights, gross pathology, and microscopic examination of select tissues.
(§1) Organization of Test Groups, Dosage Levels, and Treatment Regimen—The vehicle and test article formulations were administered by intranasal instillation into each naris via a syringe equipped with stainless steel-shafted, stainless steel ball-tipped dosing cannula once (Single-Dose Phase) or once daily for 14 consecutive days (Repeat-Dose Phase), through the day prior to the primary necropsy. The same syringe and dosing cannula was used to administer the dose across both nares for a given animal on a given dosing day. The total dose volume administered per dose was split approximately equally across each naris, such that approximately half of the total dose volume was administered into one naris, and the remaining was administered into the other naris. Treatment administration across each naris for an individual animal occurred at approximately the same time. The dose volume for all groups was 0.22 mL/kg. Individual doses were based on the most recently recorded body weights. Adjusted doses became effective the day of collection of the weekly body weights. The first day of dosing was Study Day 0; the first week of dosing was Study Week 0.
(§2) All animals were observed twice daily, once in the morning and once in the afternoon, for mortality and moribundity. Animals found dead were examined macroscopically as soon as possible to ensure that tissues were not lost due to autolysis.
(§3) Clinical examinations were performed at the time of dose administration and 1 to 2 hours following dose administration. During the recovery period, the animals were observed once daily. The absence or presence of findings was recorded for individual animals at the scheduled intervals. For the Single-Dose Phase, detailed physical examinations were conducted on all animals within 4 days of receipt, on the day of randomization, and on Study Days 0, 1 (for animals scheduled for necropsy), 7, and 14. For the Repeat-Dose Phase, detailed physical examinations were conducted on all animals within 4 days of receipt, on the day of randomization, weekly (t 2 days) during the study period, and on the day of the scheduled necropsies (see Appendix 1—Study Protocol and Deviations). Daily observations during the recovery period were not necessary on days when detailed physical examinations were conducted.
(§4) Individual body weights were recorded within 4 days of receipt, on the day of randomization, Study Day 0 (prior to dosing), weekly (±2 days) during the study period, and on the day prior to the scheduled necropsies (nonfasted). Mean body weights and mean body weight changes were calculated for the corresponding intervals. Final body weights (fasted) were recorded on the day of the scheduled necropsies.
(§5) Cage food weights were recorded once weekly (±2 days) beginning following randomization and throughout the study period. Food consumption was calculated as g/animal/day for the corresponding body weight intervals.
(§6) Blood and urine samples for clinical pathology evaluations (hematology, coagulation, serum chemistry, and urinalysis) were collected from all animals assigned to the scheduled necropsies. […]

[2] = test system: Sprague Dawley rats; test: Example 9 benzoylecgonine intranasal toxicity, Repeat-Dose Phase; type: in vivo, rat
Experimental: Benzoylecgonine in the vehicle was administered by intranasal instillation once daily for 14 days to a group (Group 2) of Sprague Dawley rats at a dosage level of 8.8 mg/kg/day. […] The dose volume was 0.22 mL/kg, divided between the 2 nares, for both groups. Groups 1 and 2 each consisted of 15 animals/sex. Following 14 days of dose administration, 10 animals/sex/group were euthanized; the remaining 5 animals/sex/group were euthanized following a 14-day nondosing (recovery) period. Criteria for evaluation included daily mortality observations, daily clinical observations, detailed physical observations, body weights, food consumption, clinical pathology (hematology, coagulation, serum chemistry, and urinalysis), organ weights, gross pathology, and microscopic examination of select tissues.
as §1, §2, §3, §4, §5, §6

[3] = Benzoylecgonine solubility in water; type: physicochemical; conditions: deionized water vehicle
Experimental: Deionized water was chosen as the vehicle for this study to avoid any vehicle-related local toxicity. Benzoylecgonine is soluble in water up to approximately 40 mg/mL.

[4] = Literature disposition of cocaine (intravenous clearance, urinary elimination); type: in vivo, human; conditions: humans
From the text: In humans, cocaine is eliminated predominantly by metabolism, with little excreted unchanged in the urine. Only 1% to 10% of a dose of cocaine is eliminated unmetabolized in urine.

[5] = topical application with cotton pledgets; cited from earlier work
[6] = 8.8 mg/kg once, intranasal instillation
[7] = 8.8 mg/kg/day for 14 days, intranasal instillation

Question: What does the source list for CN1[C@H]2CC[C@@H]1[C@@H](C(=O)O)[C@@H](OC(=O)c1ccccc1)C2 [BE, benzoylecgonine]?
Answer: body weights [1, 6]: unaffected; clinical observations [1, 6]: no test article-related clinical observations; food consumption [1, 6]: unaffected; hematology and coagulation parameters [1, 6]: unaffected; macroscopic examination at necropsy [1, 6]: No test article-related macroscopic findings; organ weights [1, 6]: No test article-related organ weight findings; serum chemistry parameters [1, 6]: unaffected; survival [1, 6]: no test article-related effects on survival; urinalysis parameters [1, 6]: unaffected; microscopic examination (nasal cavity with turbinates) ([1]; 8.8 mg/kg once, intranasal instillation, also after 14-day recovery): No test article-related microscopic findings; pH of the dosing formulation ([1]; Single-Dose Phase, 40 mg/mL in deionized water, pH meter): 6.32; tolerability ([2]; 8.8 mg/kg once or once daily for 14 days, intranasal instillation): well tolerated; clinical observations [2, 7]: no test article-related clinical observations; food consumption [2, 7]: unaffected; hematology and coagulation parameters [2, 7]: unaffected; macroscopic examination at necropsy [2, 7]: No test article-related macroscopic findings; organ weights [2, 7]: No test article-related organ weight findings; serum chemistry parameters [2, 7]: unaffected; survival [2, 7]: All animals survived; urinalysis parameters [2, 7]: unaffected; microscopic examination (nasal cavity with turbinates) ([2]; 8.8 mg/kg/day for 14 days, intranasal instillation, also after 14-day recovery): No test article-related microscopic findings; body weights ([2]; 8.8 mg/kg/day for 14 days, intranasal instillation, dosing period): unaffected; pH of the dosing formulation ([2]; Repeat-Dose Phase, 40 mg/mL in deionized water, pH meter): 6.32; no-observed-effect level (NOEL) ([2]; intranasal instillation once or once daily for 14 days): 8.8 mg/kg/day; solubility in water [3]: approximately 40 mg/mL

Question: For COC(=O)[C@H]1[C@@H](OC(=O)c2ccccc2)C[C@@H]2CC[C@H]1N2C [Cocaine, cocaine, reference compound], which “CLr as percent of CL” value [4] is on record?
Answer: The value was “less than 2%”.

Question: What about the “CLr as percent of human glomerular filtration rate (125 mL/min)” value [4] of the same compound?
Answer: Its value is “less than 40%”.

Question: And the “fraction absorbed from a cottonoid pledget” value [5]?
Answer: The value was “approximately 37%”.

From US10413505B1, “Pharmaceutical compositions and methods of using the same” (priority 2017, dated 2019)
